Literature values, collected in patent US10682361B2, “Sustained release bimatoprost, bimatoprost analogs, prostamides and prostaglandins for fat reduction” (ALLERGAN, INC., priority 2013, dated 2020).

Key:
adipocytes = conditions: topical administration
fat = conditions: topical administration

In the case of `CCNC(=O)CCC/C=C\C[C@@H]1[C@@H](/C=C/[C@@H](O)CCc2ccccc2)[C@H](O)C[C@@H]1O` [bimatoprost], the “effect on adipocytes in animal models” value (adipocytes) is given as “effectively prevent apidocyte formation and maturation and to atrophy adipocytes” and the clinical fat reduction (fat) is given as “clinical evidence of fat reduction”.
